Values after ≈ are worked out from the molar mass of the structure shown. Values joined by “and” are separate entries in the source; they are usually repeats but may differ in a detail not shown here. Equal entries are not always repeated. Where two headings read alike, the source gives them in different places.
Columns and labels:
[1] = test system: Cyp3a11; test: PXR target gene expression in hPXR mice (mice expressing the human PXR gene) after FKK6 gavage; type: in vivo, mouse; conditions: both sexes, C57BL/6-Nr1i2tm1(NR1I2)Arte (hPXR mice), mouse, 500 μM, 5 doses (60 h), individual mice
Description: (§1) (Scheer et al, 2010) were administered 10% DMSO (n = 3) or FKK6 (n = 3) in 3 or 5 doses, with each dose interval of 12 h. Each gavage dose volume was 100 μl. 2–4 h after the dosing period, mice were sacrificed, and tissues were harvested for further analysis. The mouse studies were performed three independent times over an 18‐month period. All purchased mice were acclimatized in the Einstein vivarium for ~ 2 weeks before experiments started. […]. The room temperature was maintained at 25 ± 2°C with 55 ± 5% humidity. All studies were approved by the Institute of Animal Studies at the Albert Einstein College of Medicine, INC (IACUC # 20160706, 20160701 and preceding protocols), and specific animal protocols were also approved by additional protocols (IACUC# 20170406, 20170504) and Animal Care and Use Review Office (ACURO) of the US Army Medical Research and Materiel Command (PR160167, W81XWH‐17‐1‐0479). […]
(§2) Mouse small, large intestine and liver samples were collected and total RNAs were […]
(§3) isolated. […] Each tissue PCR was […]
(§4) repeated in quadruplicate. The expression was normalized to internal control, GAPDH. ( b,d) The histograms show mean (95 %CI) values, c, mean (SD) and two way ANOVA followed with Tukey's post hoc test. The entire experiment was repeated n = 3 for reproducibility. The data shown is one representative experiment .

[2] = test system: hPXR mice; test: as above; type: in vivo, mouse; conditions: for mdr1 fold expression / Cyp3a11 fold expression: Fig 4f
Description: as §1, §2, §3, §4

[3] = test system: mdr1; test: as above; type: in vivo, mouse; conditions: both sexes, C57BL/6-Nr1i2tm1(NR1I2)Arte (hPXR mice), mouse, 500 μM, 5 doses (60 h), individual mice
Description: as §1, §2, §3, §4

[4] = biological target: T1, pCAF (Homo sapiens, UniProt Q92831); test: Histone acetyltransferase assay pCAF (Reaction Biology); type: biochemical; conditions: substrate Histone H3, replicates
T1 construct: purchased Reaction Biology Corp; host or cells: E. coli
T1 sequence (Q92831 492-658): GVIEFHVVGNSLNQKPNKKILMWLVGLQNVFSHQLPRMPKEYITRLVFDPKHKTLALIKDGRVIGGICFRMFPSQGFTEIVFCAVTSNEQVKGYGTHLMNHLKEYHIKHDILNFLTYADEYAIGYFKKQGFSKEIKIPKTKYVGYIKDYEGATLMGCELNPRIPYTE
Description: The following […] assays (HDAC, SIRT1, PRMT1, PARP1, p300, pCAF) were performed by Reaction Biology Corp. FKK6 was screened at a single concentration of 10 μM in duplicate in two separate experiments. The appropriate controls for the individual assays are published. The overall […]
enzyme activity in the assay is reported as a % activity in DMSO control wells. Control IC50 […]
Briefly, for the Sirtuin (SIRT1) assay, human SIRT1 (GenBank
Accession No. NM012238) full -length N-terminal His-tag protein (MW 83.2 kDa) was purified after expression in E. coli. The reaction buffer was freshly prepared and constituted 50 mM Tris-HC l ( p H 8), 137 mM NaCl, 2.7 mM KCl, 1 mM MgCl2, and just before use, 1 mg/mL BSA and 1% DMSO was added. The substrate was a fluorogenic acetylated peptide of p53 residues 379-382 (RHKK (Ac)- AM C) . […]
8), 50 mM NaCl, 0.1 mM EDTA, 1 mM DTT, 1 mM PMSF, and 1% DMSO. […] The radioactivity in mixture is detected on washed filter paper using a scintillation counter. […]
Reader (Perkin Elmer) (Ex 360 nm/ Em 460 nm). For all enzyme activity assays, the percentage of enzyme activity (relative to DMSO controls) and IC50 values were calculated using GraphPad Prism 4 program (sigmoidal dose response equations). […]

[5] = Solubility of FKK6 in 10% DMSO; type: physicochemical; conditions: aqueous, aqueous with cosolvent or surfactant or cyclodextrin, room temperature, read-out: maximal solubility (saturation concentration)
Description: FKK6 was solubilized to saturation concentrations (~ 500 μM) at room temperature in 10% DMSO (DMSO maximum tolerated dose in mice is ~ 2.5 g/kg/day for 35 consecutive days) (Caujolle et al, 1967a; Brayton, 1986).

[6] = 500 μM, 5 doses (60 h), individual mice

C#CCC(O)(c1ccncc1)c1cc2ccccc2n1S(=O)(=O)c1ccccc1 (stereo not shown) [FKK6] showed a fold induction at 60 h, 500 µM ([1]; in vivo, read-out: Cyp3a11 fold induction, Liver) of 1.81, a fold induction at 60 h, 500 µM ([1]; in vivo, read-out: Cyp3a11 fold induction, Small Intestine) of 1.85 and a fold induction at 60 h, 500 µM ([1]; large intestine, oral, read-out: Cyp3a11 fold induction, Large Intestine) of 0.87. For the same compound, the fold induction at 60 h, 500 µM ([1]; liver, oral, read-out: Cyp3a11 fold induction, Liver) was 0.75, the fold induction at 60 h, 500 µM ([1]; small intestine, oral, read-out: Cyp3a11 fold induction, Small Intestine) was 0.85 and the “Cyp3a11 fold induction, Large Intestine” value [2, 6] was 0.5 fold. For the same compound, the “Cyp3a11 fold induction, Liver” value [2, 6] was 0.51 fold, the “Cyp3a11 fold induction, Small Intestine” value [2, 6] was 0.81 fold and the “mdr1 fold induction, Large Intestine” value [2, 6] was 2.03 fold. For the same compound, the “mdr1 fold induction, Liver” value [2, 6] was “distinct increase and 4.6 fold and 5.65 fold and 2.73 fold”, the “mdr1 fold induction, Small Intestine” value [2, 6] was 1.7 fold and 2.02 fold and the mdr1 fold expression ([2]; Large Intestine) was 2.55 fold. For the same compound, the Cyp3a11 fold expression ([2]; Liver) was 2.01 fold and 1.78 fold and 1.23 fold, the mdr1 fold expression ([2]; Liver) was 0.93 fold and 1.05 fold and 1.28 fold and the Cyp3a11 fold expression ([2]; Small Intestine) was 3.71 fold and 3.81 fold and 4.42 fold. For the same compound, the mdr1 fold expression ([2]; Small Intestine) was 1.46 fold and 1.56 fold and 1.59 fold, the fold induction at 60 h, 500 µM ([3]; in vivo, read-out: mdr1 fold induction, Large Intestine) was 1.85 and the fold induction at 60 h, 500 µM ([3]; large intestine, oral, read-out: mdr1 fold induction, Large Intestine) was 1.96. For the same compound, the fold induction at 60 h, 500 µM ([3]; small intestine, oral, read-out: mdr1 fold induction, Small Intestine) was 1.84, the “% Enzyme Activity to DMSO controls” value ([4]; 10 μM) was 101.68% and 104.61% and 104.47% and the remaining activity at 10 µM ([4]; read-out: % Enzyme Activity to DMSO controls) was 100%. It also gave a solubility [5] of roughly 500 µM (≈ 201 µg/mL).
